# Where “and” joins values, the source holds several entries; their conditions need not be identical. Equal entries are not always repeated.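 Interpolation was linear, between the two tested concentrations surrounding the appropriate level; five concentrations were tested over 48 hours in 96-well plates. GI50 is the concentration that inhibits growth by half. TGI: total growth inhibition.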
# Experiments:
# Assay in all cases: NCI tumour cell line growth inhibition, 48 h
# EKVX NSCLC = test system: EKVX NSCLC
# A549 NSCLC = test system: A549 NSCLC
# CAKI-1 renal = test system: CAKI-1 renal
# RXF 393 renal = test system: RXF 393 renal
# HOP-92 NSCLC = test system: HOP-92 NSCLC
# HL-60(TB) leukemia = test system: HL-60(TB) leukemia
# SK-MEL-5 melanoma = test system: SK-MEL-5 melanoma
# SK-MEL-28 melanoma = test system: SK-MEL-28 melanoma
# SNB-75 CNS = test system: SNB-75 CNS
# LOX IMVI melanoma = test system: LOX IMVI melanoma
SMILES,GI50 (EKVX NSCLC),TGI (EKVX NSCLC),GI50 (A549 NSCLC),TGI (A549 NSCLC),GI50 (CAKI-1 renal),TGI (CAKI-1 renal),GI50 (RXF 393 renal),TGI (RXF 393 renal),GI50 (HOP-92 NSCLC),TGI (HOP-92 NSCLC),GI50 (HL-60(TB) leukemia),TGI (HL-60(TB) leukemia),GI50 (SK-MEL-5 melanoma),TGI (SK-MEL-5 melanoma),GI50 (SK-MEL-28 melanoma),TGI (SK-MEL-28 melanoma),GI50 (SNB-75 CNS),TGI (SNB-75 CNS),GI50 (LOX IMVI melanoma),TGI (LOX IMVI melanoma)
Cc1cc(=O)n2[nH]c(-c3ccc(C(C)(C)C)cc3)cc2n1,3.88 µM,59.1 µM,11.6 µM,> 100 µM,2.6 µM,32.7 µM,4.59 µM,28.2 µM,6.6 µM,51.6 µM,6.9 µM,93.8 µM,1.82 µM,12.1 µM,20.6 µM,> 100 µM,7.9 µM,46.8 µM,7.39 µM,61.6 µM
COc1ccc(/C=C\c2cc(OC)c3c(c2)OCO3)c(O)c1O,,40.4 µM,,> 100 µM,,20.5 µM,,11.7 µM,,16.1 µM,,7.72 µM,,6.32 µM,,24.1 µM,,15.5 µM,,16.6 µM
O=C1c2ccccc2C(=O)c2sc(Nc3cccc(Cl)c3)nc21,,4.89 µM,,4.6 µM,,4.97 µM,,3.19 µM,1.82 µM,9.1 µM,,0.444 µM,,2.99 µM,,3.34 µM,,3.67 µM,,2.28 µM
CCCCCCCC(=O)SCC/C=C/[C@@H]1CC(=O)NCc2cccc(n2)C2=N[C@@](C)(CS2)C(=O)N[C@@H](C(C)C)C(=O)N1,1.75 µM,> 33.3 µM,0.723 µM,> 33.3 µM,16.9 µM,> 33.3 µM,2.14 µM,19.9 µM,0.481 µM,9.31 µM,0.509 µM,> 33.3 µM,0.924 µM,8.35 µM,1.02 µM,> 33.3 µM,0.223 µM,> 33.3 µM,0.774 µM,4.01 µM
Fc1ccc(Nc2ncnc3ccc(-c4cnc5[nH]ccc5c4)cc23)cc1Cl,0.769 µM,> 100 µM,1.79 µM,5.33 µM,0.502 µM,19.5 µM,1.53 µM,6.27 µM,1.68 µM,5.49 µM,7.76 µM,40.1 µM,6.88 µM,40.3 µM,4.13 µM,> 36.2 µM,1.23 µM,3.42 µM,3.95 µM,> 29.4 µM
CN(CC(=O)O)S(=O)(=O)c1ccc2ccccc2c1,,> 100 µM,,> 100 µM,,> 100 µM,,> 100 µM,,> 100 µM,,> 100 µM,,> 100 µM,,> 100 µM,,> 100 µM,,> 100 µM
COC(=O)Nc1nc2ccc(S(=O)c3ccccc3)cc2[nH]1 (stereo not given),35 µM,> 100 µM,5.48 µM,> 100 µM,4.99 µM,> 100 µM,3.28 µM,26.7 µM,9.88 µM,> 100 µM,2.44 µM,6.5 µM,2.83 µM,> 100 µM,3.78 µM,> 100 µM,1.75 µM,5.75 µM,5.96 µM,> 100 µM
CC(C)c1ccc(C(C)C(=O)N(CC2=C(C(C)c3ccccn3)c3ccccc3C2)C(C)C)cc1 (stereo not given),1.72 µM,8.31 µM,3.85 µM,> 100 µM,1.76 µM,6.73 µM,2.38 µM,14.3 µM,1.98 µM,12.8 µM,2.15 µM,5.44 µM,1.97 µM,4.62 µM,10.8 µM,66.2 µM,3.17 µM,> 100 µM,2.54 µM,8.23 µM
CC1=C(C#N)C23C(=O)c4ccccc4C(O)=C2C(=O)C=CC3(O)N1Cc1ccccc1 (stereo not given),43.6 µM,> 100 µM,72.2 µM,> 100 µM,43.2 µM,> 100 µM,26 µM,> 100 µM,39.4 µM,> 100 µM,37.8 µM,> 100 µM,18 µM,61.5 µM,57.1 µM,> 100 µM,36.6 µM,> 100 µM,33 µM,> 100 µM
CC1=C(C(=O)Nc2ccc(F)c(Cl)c2)C(c2ccc(Cl)cc2)NC(=O)N1 (stereo not given),18.5 µM,49.9 µM,20.1 µM,46.3 µM,21 µM,71.2 µM,17.6 µM,37.2 µM,11.8 µM,26.6 µM,0.083 µM,1.87 µM,15.5 µM,30.4 µM,16.5 µM,32.6 µM,5.28 µM,30.5 µM,16.6 µM,32 µM
O=C(NCCNc1nccc(-c2c(-c3cccc(O)c3)nc3sccn23)n1)c1ccccc1O,11.8 µM,50.9 µM,5.02 µM,> 51.1 µM,3.23 µM,21.8 µM,2.78 µM,16.8 µM,2.92 µM,28.6 µM,3.38 µM,> 29.4 µM,1.47 µM,5.21 µM,0.43 µM,33.3 µM,2.29 µM,19.6 µM,3.03 µM,23.7 µM
C=C(CNCCO)[C@@H]1CC[C@]2(CO)CC[C@]3(C)[C@H](CC[C@@H]4[C@@]5(C)CCC(N)C(C)(C)[C@@H]5CC[C@]43C)[C@@H]12 (stereo not given in full),4.59 µM,18.1 µM,2.41 µM,6.69 µM,4.86 µM,18.1 µM,1.53 µM,3.08 µM,1.29 µM,2.76 µM,1.89 µM,4.1 µM,1.73 µM,3.18 µM,1.96 µM,3.6 µM,1.4 µM,3.93 µM,1.7 µM,3.2 µM
Cc1ccc(-c2nnc(-c3ccc4ccccc4c3)o2)cc1,,> 100 µM,,> 100 µM,,> 86.8 µM,,55.1 µM,,> 100 µM,,> 21.9 µM,,> 100 µM,,> 100 µM,,82.7 µM,,> 100 µM
O=C(Nc1ccc(I)cc1)c1cc([N+](=O)[O-])ccc1O,6.72 µM,> 100 µM,11.6 µM,> 100 µM,5.39 µM,> 100 µM,2.86 µM,23.7 µM,0.709 µM,3.99 µM,5.44 µM,57.8 µM,3.63 µM,18.6 µM,9.53 µM,72.3 µM,8.89 µM,67 µM,4.44 µM,61 µM
NC1CCC(Nc2nc(NCc3ccc(-c4ccco4)nc3)c3ncn(C4CCCC4)c3n2)CC1 (stereo not given),0.0465 µM,0.538 µM and 0.242 µM,0.0273 µM,14.4 µM,2.86 µM,12.6 µM,0.0179 µM,0.04 µM,0.0275 µM,0.0803 µM,0.0193 µM,0.0729 µM,0.0913 µM,1.02 µM,0.0227 µM,0.0686 µM,0.0101 µM,0.0299 µM,,21.9 µM
CNC(=O)c1ccccc1Nc1nc(Nc2ccc(N3CCOCC3)cc2OC)ncc1Cl,0.274 µM,> 24.7 µM,0.344 µM,> 20.4 µM,0.165 µM,1.58 µM,0.797 µM,3.31 µM,0.0571 µM,1.03 µM,0.206 µM,> 57.1 µM,1.68 µM,> 37.8 µM,1.35 µM,> 37.1 µM,0.766 µM,5.44 µM,0.401 µM,3.17 µM
CSc1ccc(/C=C2\CN(C)C/C(=C\c3ccc(SC)cc3)C2=O)cc1,,> 100 µM,,> 100 µM,,> 100 µM,,> 100 µM,,> 100 µM,,> 100 µM,,> 100 µM,,> 100 µM,,38.2 µM,,22.6 µM
CN(C)c1ccc(-c2cc(-c3ccc(Nc4nc(Nc5ccc(Cl)cc5)nc(Nc5ccc(Cl)cc5)n4)cc3)no2)cc1,10.5 µM,> 100 µM,5.12 µM,27.5 µM,2.8 µM,> 100 µM,2.76 µM,6.04 µM,2.69 µM,10.6 µM,2.01 µM,4.73 µM,2.07 µM,9.07 µM,6.49 µM,46.9 µM,5.12 µM,28.1 µM,4.22 µM,35.6 µM
COc1cc2nc(C)nc(N[C@H](C)c3cc(N)cc(C(F)(F)F)c3)c2cc1O[C@H]1CCOC1,11.1 µM,26.5 µM,14.8 µM,32.4 µM,7.14 µM,24.1 µM,5.88 µM,22 µM,0.0623 µM,7.31 µM,14 µM,39.2 µM,13.4 µM,26.5 µM,16 µM,29.6 µM,10.4 µM,23.3 µM,12.2 µM,28.1 µM
NC(CCc1nc(-c2ccc(Cl)cc2)cs1)C(=O)O (stereo not given),,> 100 µM,,> 100 µM,,> 100 µM,,> 100 µM,,> 100 µM,,> 100 µM,,> 100 µM,,> 100 µM,,> 100 µM,,> 100 µM

# Source: PubChem BioAssay (NCI)
